# Reference: patent publication US11298314B2, “Injectable composition for localized fat reduction without pain, edema, and side effects, and method for preparing same” (AMI PHARM CO., LTD., priority 2017, dated 2022)
# Entries after “also recorded” stand apart in the source; their conditions may differ.
# Tests used:
# inguinal fat pad = details: 0.2 ml s.c. once into inguinal fat pad, 8 days post-injection
# [1] = Formulation stability of PPC injectable preparations: property, transparency, particle size, pH
# Description: The particle size was measured using a nano particle size analyzer (Microtrac Wave, MICROTRACT, USA). […] The transparency was measured using a spectrophotometer (CM-3600d, KONICA MINOLTA, JAPAN). The pH was measured with a pH meter (ST3100, OHAUS, GERMANY), and the isotonicity was measured with an osmotic pressure meter (Vapro 5600, Elitech Group, Tokyo, Japan), and viscosity was analyzed using a viscometer (Digital Viscometer CL-2, CAS, Korea).
# The washed and sterilized preparation tank was charged with the water for injection (at room temperature), and phosphatidylcholine (PPC) and benzyl alcohol were added thereto, and the mixture was stirred at 200 RPM for 2 hours under the condition of nitrogen pressure, shading and room temperature. After the completion of stirring, the mixture was transferred to an ultra-high pressure homogenizer (Nano Disperser NLM100, Ilshin Autoclave, Korea) with a nitrogen pressure. Ultra-high pressure homogenization (dispersion) was carried out at 12,000 psi for 7 cycles, and the particles were finely pulverized. Then, the pH was adjusted. After filtration through a 0.2 μm filter, the vial was filled and sealed.
# Specifically, the water for injection was put into the preparation tank which was cleaned and sterilized (room temperature), and sodium hydroxide was added to the water for injection. Then deoxycholic acid and benzyl alcohol were added, stirred and dissolved. Then, phosphatidylcholine was added thereto, and the mixture was stirred at 200 RPM for about 24 hours under shading, sealing, room temperature (25° C.), and nitrogen pressure. After completion of the stirring, the pH was adjusted (if necessary, with additional sodium hydroxide or hydrochloric acid), and it was filtered through a 0.2 μm filter, and filled into the vial and sealed.
# Then glycocholic acid and benzyl alcohol were added, stirred and dissolved. Then, phosphatidylcholine was added thereto, and the mixture was stirred at 200 RPM for about 24 hours under shading, sealing, room temperature (25° C.), and nitrogen pressure. After completion of the stirring, the pH was adjusted (if necessary, with additional sodium hydroxide or 0.001-0.6% of hydrochloric acid), and it was filtered through a 0.2 μm filter, and filled into the vial and sealed.
# The formulation stability of the PPC injectable compositions solubilized with glycocholic acid (GCA) in Tables 3 and 4 was evaluated immediately after the preparation and 30 days after the preparation (refrigerated storage).
# sole of the rat paws = experiment: Measurement of skin lesion (erythema) on rat paw; assay type: in vivo, Sprague Dawley rats; details: for skin lesion (erythema) in words: 2 hours after administration;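 as to grade of skin lesion (erythema), 1 hour after administration: grades − to ++++ mean no to extremely severe erythema versus before injection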;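 as to grade of skin lesion (erythema), 2 hours after administration: grades − to ++++ mean no to extremely severe erythema versus before injection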;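 as to grade of skin lesion (erythema), Immediately after administration: grades − to ++++ mean no to extremely severe erythema versus before injection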
# Method in brief: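 Male Sprague Dawley rats (6 weeks, 170–200 g) received 0.1 ml test composition or PBS injected into the paw. Paw thickness measured by caliper before, immediately after, and 1 or 2 h post-injection; sole lesions photographed and graded 0–4.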
# 3T3-L1 adipocytes [2] = experiment: Adipocyte (3T3-L1) reducing effect, MTT assay; assay type: cell-based
# Description: Tests were performed to compare the adipocyte reducing activity of the PPC single composition and the PPC composition solubilized with bile acids. Differentiated 3T3L-1 adipocyte lines were used to observe adipocyte reduction activity, and cell viability was monitored by MTT assay. […] Materials and methods employed in the following experiments are described below. In the following, % of the composition refers to % (w/v).
# The specific test methods are as follows. […] The cells were washed twice with PBS, treated with MTT reagent (50 μl) and left at 37° C. for 2 hours. After removing the supernatant, MTT formazan crystals were dissolved in DMSO and the absorbance was measured at 540 nm using a microplate reader.
# The 3T3-L1 adipocyte (ATCC) was cultured in Dulbecco's modified eagle medium (DMEM) (Invitrogen) supplemented with 10% fetal bovine serum, 100 units/ml penicillin and 100 μg/ml streptomycin under the condition of 5% CO2 and 37° C. […] Subsequently, the medium was replaced with DMEM medium containing 1 μg/ml insulin (Sigma), and the culture medium was maintained and changed every 2 to 3 days until the degree of differentiation reaches maximum. If it took more than 7 days, the cells were kept in normal DMEM culture medium until starting the tests. […] After the cells were incubated for 3 hours under the condition of 37° C. and 5% CO2, the MTT solution was removed.
# 3T3-L1 adipocytes [3] = experiment: Lipolysis assay (glycerol release); assay type: cell-based; details: 48 hours; listed as GCA single
# Description: The glycerol activity assay was performed with the test materials to determine whether the cell death in the MTT assay was due to necrosis or lipolysis. Glycerol is a specific marker that increases when fat breaks down. Abcam Lipolysis Assay Kit (Colorimetric) was used according to the manufacturer's manual, and the method of the test was as follows: […] And then the lysis was induced. […] After adding the glycerol assay complex (50 μl) thereto, the solution was incubated at room temperature for 30 minutes. Absorbance was measured at OD 570 (using standard curve for absolute determination).
# [4] = test system: Caspase 3 in 3T3-L1 adipocytes; experiment: Caspase 3 activity assay; assay type: cell-based; details: 0-48 hours
# Description: The Caspase 3 activity assay was performed with the test materials to determine whether the cell death in the result of MTT assay was due to necrosis or apoptosis. The Caspase 3 specifically increases when apoptosis occurs and is a marker of apoptosis. […] The cells were then treated with 50 ul of cell lysis buffer (10 mM Tris-HCl, 10 mM NaH2PO4/NaHPO4, pH 7.5, 130 mM NaCl, 1% Triton X-100 and 10 mM sodium pyrophosphate) and left at 4° C. for […]. The supernatant was collected by centrifugation at 1000× rpm for 1 minute, and protein quantification was performed by BCA method. The 50 μl of reaction buffer (4 mM HEPES, pH 7.5, 10% glycerol, 2 mM dithiothreitol) and 0.5 μl of 4 mM DEVD-p-NA were added to each sample and reacted at 37° C. for 1 hour. Then wavelength was measured with a […] at 405 nm.
# [5] = test system: tissues of the injected area (rat paw); experiment: H&E staining histological test (inflammation) of injected rat paw; assay type: in vivo, Sprague Dawley rats; details: for degree of inflammation (H&E) in words: rats sacrificed at 3 hours, injected paw
# Description: The tissues of the injected area were dissected, fixed with 10% formalin, and then the specimen was prepared and images were captured using an optical microscope. The degree of inflammation was evaluated as follows.
# paw of the rats = experiment: Rat paw edema; assay type: in vivo, Sprague Dawley rats; details: for degree of edema in words: 2 hours after administration, rat paw; for degree of edema, 1 hour after administration / degree of edema, 2 hours after administration / degree of edema, Immediately after administration: 0.1 ml into rat paw
# Method in brief: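 Male Sprague Dawley rats (6 weeks old, 170–200 g) received 0.1 ml of PBS or test composition into the paw. Paw thickness measured by caliper before, immediately after, and 1 or 2 h post-injection; edema graded 0–4, with injection-site skin lesions photographed.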
# [6] = bile acid single composition 1.0% (w/v)
# [7] = bile acid single composition 2.5% (w/v)
# [8] = bile acid single composition 5.0% (w/v)
# [9] = bile acid single composition 7.5% (w/v)
structure (smiles),measurement,setting,value
"C[C@H](CCC(=O)NCC(=O)O)[C@H]1CC[C@H]2[C@@H]3[C@H](O)C[C@@H]4C[C@H](O)CC[C@]4(C)[C@H]3C[C@H](O)[C@]12C [GCA, 2-[[(4R)-4-[(3R,5S,7R,8R,9S,10S,12S,13R,14S,17R)-3,7,12-trihydroxy-10,13-dimethyl-2,3,4,5,6,7,8,9,11,12,14,15,16,17-tetradecahydro-1H-cyclopenta[a]phenanthren-17-yl]pentanoyl]amino]acetic acid]",histological change of adipocytes in fat tissue,inguinal fat pad,clear cell membrane boundary and a well-formed cell shape
same,"inflammation at the site of administration, dermal and epidermal tissues",inguinal fat pad,inflammation was clearly observed
same,minimum molar ratio to PPC for a clear solution and mixed micelle of 10 nm or less,[1],0.76
same,bile acid concentration at which stable injectable preparations can be made,[1]; based on PPC 5.0%,≥ 2.2%
same,skin lesion (erythema) in words,sole of the rat paws; listed as GCA 1.0%,None
same,skin lesion (erythema) in words,sole of the rat paws; listed as GCA 2.5%,Mild
same,skin lesion (erythema) in words,sole of the rat paws; listed as GCA 5.0%,Mild
same,skin lesion (erythema) in words,sole of the rat paws; listed as GCA 7.5%,Moderate
same,"grade of skin lesion (erythema), 1 hour after administration",sole of the rat paws; [6],−
same,"grade of skin lesion (erythema), 2 hours after administration",sole of the rat paws; [6],−
same,"grade of skin lesion (erythema), Immediately after administration",sole of the rat paws; [6],−
same,"grade of skin lesion (erythema), 1 hour after administration",sole of the rat paws; [7],+
same,"grade of skin lesion (erythema), 2 hours after administration",sole of the rat paws; [7],+
same,"grade of skin lesion (erythema), Immediately after administration",sole of the rat paws; [7],+
same,"grade of skin lesion (erythema), 1 hour after administration",sole of the rat paws; [8],+
same,"grade of skin lesion (erythema), 2 hours after administration",sole of the rat paws; [8],+
same,"grade of skin lesion (erythema), Immediately after administration",sole of the rat paws; [8],+
same,"grade of skin lesion (erythema), 1 hour after administration",sole of the rat paws; [9],++
same,"grade of skin lesion (erythema), 2 hours after administration",sole of the rat paws; [9],++
same,"grade of skin lesion (erythema), Immediately after administration",sole of the rat paws; [9],+
same,adipocyte viability / adipocyte-reducing activity,"3T3-L1 adipocytes [2]; 24 to 96 hours, various concentrations",reduced adipocyte viability in time and concentration dependent manner
same,adipocyte-reducing effect at the same PPC concentration,"3T3-L1 adipocytes [2]; after 96 hours, FIGS. 7F to 7H",lower adipocyte-reducing effect than PPC+GCA
same,glycerol release / cytolytic activity,3T3-L1 adipocytes [3],slightly higher cytolytic activity than at 24 hours; also recorded: slightly higher cytolytic activity than that of 24 hours
same,caspase-3 activity,[4],no time or concentration-dependent change
same,"Inflammation (H&E), BA % (w/v) 1.0","[5]; bile acid single composition 1.0% (w/v), injected rat paw",+
same,"Inflammation (H&E), BA % (w/v) 2.5","[5]; bile acid single composition 2.5% (w/v), injected rat paw",++
same,"Inflammation (H&E), BA % (w/v) 5.0","[5]; bile acid single composition 5.0% (w/v), injected rat paw",++
same,"Inflammation (H&E), BA % (w/v) 7.5","[5]; bile acid single composition 7.5% (w/v), injected rat paw",++
same,degree of inflammation (H&E) in words,[5]; listed as GCA 1.0%,Mild
same,degree of inflammation (H&E) in words,[5]; listed as GCA 2.5%,moderate
same,degree of edema in words,paw of the rats; listed as GCA 1.0%,Mild and mild
same,degree of edema in words,paw of the rats; listed as GCA 2.5%,moderate
same,degree of edema in words,paw of the rats; listed as GCA 5.0%,Moderate
same,"degree of edema, 1 hour after administration",paw of the rats; [6],"+ (mild edema [+, (the degree of swelling was 1-20% compared to before the injection)])"
same,"degree of edema, 2 hours after administration",paw of the rats; [6],"+ (mild edema [+, (the degree of swelling was 1-20% compared to before the injection)])"
same,"degree of edema, Immediately after administration",paw of the rats; [6],"+ (mild edema [+, (the degree of swelling was 1-20% compared to before the injection)])"
same,"degree of edema, 1 hour after administration",paw of the rats; [7],"++ (moderate edema [++, (the degree of swelling was 20-40% compared to before the injection)])"
same,"degree of edema, 2 hours after administration",paw of the rats; [7],"++ (moderate edema [++, (the degree of swelling was 20-40% compared to before the injection)])"
same,"degree of edema, Immediately after administration",paw of the rats; [7],"++ (moderate edema [++, (the degree of swelling was 20-40% compared to before the injection)])"
same,"degree of edema, 1 hour after administration",paw of the rats; [8],"++ (moderate edema [++, (the degree of swelling was 20-40% compared to before the injection)])"
same,"degree of edema, 2 hours after administration",paw of the rats; [8],"++ (moderate edema [++, (the degree of swelling was 20-40% compared to before the injection)])"
same,"degree of edema, Immediately after administration",paw of the rats; [8],"++ (moderate edema [++, (the degree of swelling was 20-40% compared to before the injection)])"
same,"degree of edema, 1 hour after administration",paw of the rats; [9],"++++ (extremely severe edema [++++, (the degree of swelling was 60% or more compared to before the injection)])"
same,"degree of edema, 2 hours after administration",paw of the rats; [9],"++++ (extremely severe edema [++++, (the degree of swelling was 60% or more compared to before the injection)])"
same,"degree of edema, Immediately after administration",paw of the rats; [9],"++ (moderate edema [++, (the degree of swelling was 20-40% compared to before the injection)])"
